The text below walks through data of PMC7176092, “Development of the first in vivo GPR17 ligand through an iterative drug discovery pipeline: A novel disease-modifying strategy for multiple sclerosis” (PLoS ONE, 2020).

What all share (details): 100 nM
The target in one assay is T1, ADR1A (Homo sapiens, UniProt P35348).
T1 construct: Eurofins Cerep (external service)
T1 sequence (P35348 1-466): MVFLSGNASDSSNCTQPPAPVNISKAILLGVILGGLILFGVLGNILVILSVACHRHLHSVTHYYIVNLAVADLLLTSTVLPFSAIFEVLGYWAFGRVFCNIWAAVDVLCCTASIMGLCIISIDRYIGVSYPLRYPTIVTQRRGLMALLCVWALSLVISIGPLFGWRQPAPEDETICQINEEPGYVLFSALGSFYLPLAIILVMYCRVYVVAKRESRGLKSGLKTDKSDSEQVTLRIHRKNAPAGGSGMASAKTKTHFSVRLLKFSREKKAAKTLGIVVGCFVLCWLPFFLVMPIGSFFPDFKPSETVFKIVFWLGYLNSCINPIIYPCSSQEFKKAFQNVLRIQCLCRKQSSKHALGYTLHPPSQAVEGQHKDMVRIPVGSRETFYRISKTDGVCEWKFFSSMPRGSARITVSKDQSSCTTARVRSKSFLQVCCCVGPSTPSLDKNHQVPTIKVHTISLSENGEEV
As to the kind of experiment: Binding assay ADR1A.

The target of a further assay is T2, M3 (Homo sapiens, UniProt P20309).
T2 construct: Eurofins Cerep (external service)
T2 sequence (P20309 whole entry): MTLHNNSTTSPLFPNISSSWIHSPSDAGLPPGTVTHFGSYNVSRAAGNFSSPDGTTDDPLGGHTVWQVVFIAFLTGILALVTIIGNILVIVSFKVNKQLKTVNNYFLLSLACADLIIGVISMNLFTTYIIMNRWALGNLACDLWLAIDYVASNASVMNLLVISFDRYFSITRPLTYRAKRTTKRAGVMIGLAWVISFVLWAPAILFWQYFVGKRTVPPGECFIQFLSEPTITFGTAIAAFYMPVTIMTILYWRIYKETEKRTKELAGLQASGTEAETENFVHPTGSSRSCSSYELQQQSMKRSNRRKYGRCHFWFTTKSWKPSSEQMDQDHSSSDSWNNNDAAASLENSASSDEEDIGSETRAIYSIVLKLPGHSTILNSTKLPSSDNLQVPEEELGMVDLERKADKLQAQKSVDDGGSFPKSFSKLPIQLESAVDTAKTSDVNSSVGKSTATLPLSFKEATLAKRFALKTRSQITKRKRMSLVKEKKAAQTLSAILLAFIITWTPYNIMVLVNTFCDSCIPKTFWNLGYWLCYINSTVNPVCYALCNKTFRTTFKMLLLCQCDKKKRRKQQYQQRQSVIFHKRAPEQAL
As to the kind of experiment: Binding assay M3.

The test system of another assay is P2Y. As to the kind of experiment: Binding assay P2Y. Further details: species or system human.
In the next assay the target is T3, CXCR2 (Homo sapiens, UniProt P25025).
T3 construct: Eurofins Cerep (external service)
T3 sequence (P25025 1-360): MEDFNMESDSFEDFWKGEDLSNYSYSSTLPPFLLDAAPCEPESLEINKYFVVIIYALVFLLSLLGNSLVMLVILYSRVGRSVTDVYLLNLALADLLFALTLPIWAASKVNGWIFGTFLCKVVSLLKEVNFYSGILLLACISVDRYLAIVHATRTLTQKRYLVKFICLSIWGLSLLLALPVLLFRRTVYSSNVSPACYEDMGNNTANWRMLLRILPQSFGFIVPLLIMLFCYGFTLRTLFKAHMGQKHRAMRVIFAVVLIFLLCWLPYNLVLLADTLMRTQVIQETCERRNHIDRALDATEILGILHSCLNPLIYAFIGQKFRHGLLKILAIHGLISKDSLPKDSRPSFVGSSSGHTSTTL
Description: Binding assay CXCR2.

Where [1] appears, read: mean of 2, read-out: % Of control specific binding, Mean.
Where [2] appears, read: single replicates 1 and 2, 0.1 µM.
Where [3] appears, read: single replicates 1 and 2, read-out: % Of control specific binding.
The mark [4] stands for this setting: read-out: % Inhibition of control specific binding.

Each structure is given as a SMILES string. Several values for one entry are separate records, joined by “and”; a condition that tells them apart may be missing. Identical values can stand only once. Like-named read-outs stand apart in the source and are kept apart here.

The inhibition is the relative decrease from the control value, in per cent. In the case of `Cc1ccc(-c2nnc(SCC(=O)Nc3nccs3)[nH]2)cc1` [Compound 9], the remaining activity at 0.1 µM on ADR1A (setting [1]) was determined as 112%; on ADR1A (setting [3]) it was 117%; on M3 (setting [1]), 106%; at M3 (setting [3]) it was 101%; at CXCR2 (setting [1]), 97.3%; on CXCR2 (setting [3]) it was 96%. Moreover, the “% Of control specific binding” value on ADR1A (setting [2]) was 108.1%; at M3 (setting [2]) it was 110.4%; in the assay on P2Y (setting [2]) it was 120.7% and 135.7%; on CXCR2 (setting [2]), 98.7%. For the same compound, the figures for the inhibition at 0.1 µM at M3 (setting [4]) and at CXCR2 (setting [4]) were -6% and 3%, respectively. Moreover, the “% Inhibition of control specific binding” value in the assay on P2Y is -28%. In the assay on P2Y (mean of 2), the “% Of control specific binding, Mean” value was found to be 128.2%.
